The data set in a line: gradient 5% acetonitrile 3 min, to 50% in 2 min, to 85% in 15 min, held 3 min, 100 µL/min. Particulars: column: Zorbax Extend-C18 2.1 x 50 mm; eluents: water / acetonitrile, 0.1% formic acid. The procedure, abridged: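 Pure standards were analyzed in mixtures of ~100 molecules using HPLC coupled to a quadrupole time-of-flight mass spectrometer, in both positive and negative ionization mode. Separation used a Zorbax Extend-C18 column (2.1 × 50 mm, 1.8 μm) at 100 μL/min, with water and acetonitrile each containing 0.1% formic acid. Dead and dwell volumes were 40 μL and 900 μL, and data were collected over 3 months. Retention time was read from computationally picked adduct peaks, each inspected manually.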
`O=C(C1CCCN(c2cnc3nccnc3c2)C1)N1CCN(c2ccccc2)CC1` (centres undefined): the RP-LC retention time amounted to 715 s.
The compound `Cc1ccc(-c2csc(NC(=O)CN3CCN(C(=O)C4CCCO4)CC3)n2)cc1` (centres undefined) yielded an RP-LC retention time of 681 s.
Consider `COc1ccc(CCc2nc3cc(-c4c(C)noc4C)ccc3n2C[C@H](C)N2CCOCC2)cc1Cl`, for which the RP-LC retention time worked out at 742 s.
The value for `CCCn1cc(C(=O)NCCN(C)C)c(S(=O)(=O)N2CCN(c3ccc(Cl)cc3)CC2)n1` was 730 s; that for `CC(C)C(=O)Nc1ccc(C(=O)NCCNS(=O)(=O)c2ccc3c(c2)OCCO3)cc1` was 661 s; that for `O=C1CCCCC(CNC(=O)C2(c3ccccc3)CC2)N1` (centres undefined) was 697 s.
The value for `CCc1nnc([C@@H]2CC(F)(F)CN2C(=O)c2ocnc2C)o1` was 644 s.
`CCOC(=O)c1c(C)[nH]c(C)c1S(=O)(=O)N1CCC(C(=O)Nc2ccc(NC(C)=O)cc2)CC1`: the RP-LC retention time was determined as 666 s.
The value for `Cc1noc(C)c1Cc1c(C(=O)NCCn2c(C)cnc2C2CC2)noc1C` was 623 s.
Take `Cn1c(CC2CCN(C(=O)C3CC(=O)N(C4CCCCCC4)C3)C2)nc2cccnc21` (centres undefined): the RP-LC retention time was found to be 599 s.
To `CN(C)C(=O)c1n[nH]c2c1CN(C(=O)c1ccc(F)cc1)CC2` belongs 622 s.
To `O=C(NC1CC1)c1ccccc1OC1CN(Cc2ccsc2)C1` belongs 600 s.
The value for `CCOC(=O)c1cnc2nc(C)ccc2c1Nc1ccccc1F` was 684 s; that for `CCC1Oc2ccc(S(=O)(=O)N3CCC(C(=O)Nc4cccc(Cl)c4)CC3)cc2NC1=O` (centres undefined) was 892 s.
Compound `CC1=C(c2ccccc2)S(=O)(=O)N=C1N1CCCN(C(=O)c2ccc(Cl)s2)CC1` gave an RP-LC retention time of 896 s.
To `Cc1nn(-c2ccccc2)c2nc(N3CCCC(C(=O)Nc4cccc(Br)c4)C3)sc12` (centres undefined) belongs 1300 s; to `O=C(Nc1nnc(C2CC(=O)N(c3ccccc3)C2)o1)c1ccccn1` (centres undefined), 620 s; to `Cc1ccccc1S(=O)(=O)N1CCCC(C)(C(=O)NCc2ccccc2)C1` (centres undefined), 944 s.
Regarding `COC(=O)c1ccccc1NC(=O)CCn1c(=O)oc2ccccc21`, the RP-LC retention time came to 825 s.
Regarding `O=C1CN(C(=O)Cc2ccccc2Cl)C2(CCCC2)CN1`, the RP-LC retention time was determined as 727 s.
For the compound `CN1CCN(C(=O)c2cc3c(s2)CCN(C(=O)c2ccc(Cl)cc2)C3)CC1`, the RP-LC retention time worked out at 627 s.
To `O=c1c2cc(-c3cccs3)nn2cnn1Cc1nc(-c2ccc3c(c2)OCO3)no1` belongs 1020 s; to `CCc1cc(C(=O)Nc2cccc(OC)c2)nc2ccnn12`, 985 s.
To `Cn1ccc2c(cc(C(=O)NCc3cccc(C(F)(F)F)c3)n2C)c1=O` belongs 771 s.
In turn, `O=C(Nc1ccc(F)cc1F)C1CCN(C(=O)c2cccn2-c2cccnc2)CC1` registered an RP-LC retention time of 696 s.
For the compound `O=C(Nc1cccc(-c2cn3cccnc3n2)c1)c1ccccc1[N+](=O)[O-]`, the RP-LC retention time was 637 s.
For the compound `CCC(=O)Nc1ccc(-n2cnc(C(=O)N3CCc4ccccc4C3)c2)nc1`, the RP-LC retention time worked out at 721 s.
`CCOc1ccc(-c2noc(Cc3nc(-c4ccc(F)cc4)cs3)n2)cc1` displayed an RP-LC retention time of 1290 s.
Regarding `Cc1ccc(S(=O)(=O)N2CC(=O)N(C3CCCC3)C3(CCCCC3)C2)c(C)c1`, the RP-LC retention time turned out to be 1270 s.
Take `O=C(NCCN1CCN(C(=O)Cn2ccc3ccccc32)CC1)c1cccs1`: the RP-LC retention time was determined as 572 s.
To `CCCn1c2ccccc2c2cnn(CC(=O)NCCN(C)Cc3ccccc3)c(=O)c21` belongs 699 s.
In the case of `Cc1ccc2c(c1)C(=O)NC1(CCN(C(=O)Cc3ccccc3C)CC1)N2C`, the RP-LC retention time was determined as 820 s.
The value for `CCSc1nnc(NC(=O)Cn2c(-c3cnccn3)nc3ccccc32)s1` was 701 s; that for `CCOc1ccc(-c2csc(Cc3nc(-c4ccccc4Cl)no3)n2)cc1` was 1290 s.
The value for `c1ccc(NN(Cc2ccncc2)c2ccccc2)cc1` was 774 s.
To `Cc1onc(-c2ccc(F)cc2F)c1C(=O)NC(C)C` belongs 789 s.
`Cc1nc(N2CCN(c3ccccn3)CC2)c2c3c(sc2n1)CCC3` had an RP-LC retention time of 569 s.
The value for `Cc1ccccc1CNC(=O)CN1C(=O)CCCc2cc(S(=O)(=O)N3CCC(C)CC3)ccc21` was 975 s.
To `O=C(c1ccc(-c2cncnc2)nc1)N1CCN(c2ccccc2Cl)CC1` belongs 829 s; to `CCC(C)NC(=O)N1CCN(Cc2nc3cc(C(=O)N(C)C)ccc3o2)CC1` (centres undefined), 587 s.
To `CCc1cc(-c2csc(S(=O)(=O)NCCCN3CCC(C)CC3)c2)on1` belongs 677 s; to `O=S(=O)(Nc1ccc(F)cc1)c1cccn2cnnc12`, 659 s; to `Cc1nnc(N2CCCC(C(=O)NCc3ccccn3)C2)c2nn(-c3ccccc3)c(C)c12` (centres undefined), 566 s.
With `CCCCN1CC(c2nc3ccccc3n2CC(=O)N2CCOCC2)CC1=O` (centres undefined), the RP-LC retention time was found to be 598 s.
To `COc1ccc(-c2nnc(COc3cccc(NC(=O)Cc4cccs4)c3)o2)cc1` belongs 906 s; to `CCOc1ccccc1C(=O)Nc1c(-c2ccc(F)cc2)nc2ccccn12`, 719 s.
`COc1ccc(-c2noc(C3CC(=O)N(c4ccc5c(c4)OCO5)C3)n2)cc1` (centres undefined) came in with an RP-LC retention time of 881 s.
To `COc1ccc(N2CCN(c3cc(C(=O)O)c4cc(NC(C)=O)ccc4n3)CC2)cc1` belongs 599 s; to `CCOc1ccccc1NC(=O)C1CCN(S(=O)(=O)c2cn(CC)cn2)CC1`, 784 s; to `COc1cc(=O)c(C(=O)N2CCC(C(N)=O)CC2)nn1-c1ccc(C)cc1`, 604 s.
The value for `CC(=O)N1CCCC1c1nc2ccccc2n1CC(=O)N1CCCCC1` (centres undefined) was 594 s.
In turn, `O=C(NCc1csc(-c2cccs2)n1)C1CCN(C(=O)c2ccc(F)cc2)CC1` had an RP-LC retention time of 743 s.
To `Cc1ccc(N2CCN(CC(O)COc3ccccc3)CC2)cc1` (centres undefined) belongs 698 s; to `CCn1c(C(=O)N2CCN(c3ncccn3)CC2)cc2cc(S(=O)(=O)N(C)C)ccc21`, 830 s; to `CCNC(=O)c1cc2c(n(-c3ccc(C(C)C)cc3)c1=O)CCCC2=O`, 905 s.
`CCn1cnc(S(=O)(=O)N2CCC(C(=O)Nc3ncccc3C)CC2)c1` showed an RP-LC retention time of 570 s.
In turn, `O=C(CN1CCCC(COCc2ccccc2)C1)Nc1nccs1` (centres undefined) had an RP-LC retention time of 570 s.
Consider `O=C(NCC(c1ccco1)N1CCN(c2ccc(F)cc2)CC1)c1cnccn1` (centres undefined), for which the RP-LC retention time came out at 585 s.
To `Cc1cc(F)ccc1NC(=O)C1CCN(S(=O)(=O)c2cn(C(C)C)cn2)CC1` belongs 732 s.
Consider `O=C(CCc1ccccc1)NC1CCN(c2nnc3ccc(Cl)cn23)CC1`, for which the RP-LC retention time was found to be 739 s.
To `O=C(Cn1cc(-c2nc(-c3ccc(Cl)cc3)no2)ccc1=O)NC1CCCC1` belongs 928 s.
To `O=C(c1cnn2cccnc12)N1CCCC1c1cccc(F)c1` (centres undefined) belongs 754 s; to `O=C(NCCCn1c(C(F)(F)F)nc2cccnc21)Nc1ccccc1Br`, 860 s; to `CCc1noc(-c2ccnc(-n3cnc(C(=O)Nc4ccc(F)cc4C)c3)c2)n1`, 990 s.
To `Cc1nc2cc(-c3noc(-c4cccc(Cl)c4)n3)ccc2o1` belongs 1210 s.
In the case of `O=C(c1ccc(F)c(F)c1)N1CCc2nc(-c3ccccc3)ncc2C1`, the RP-LC retention time came out at 951 s.
The compound `COc1ccc(C)cc1NC(=O)Cn1c(N)nc(C)cc1=O` gave an RP-LC retention time of 618 s.
To `COc1c(C(=O)Nc2ccc(N3CCOCC3)cc2)sc2ccc(Cl)cc12` belongs 1110 s.
Compound `CC(C)N1C[C@H](O)C[C@H]1c1nnc2n1CCN(C(=O)c1ccc3ccccc3n1)C2` came in with an RP-LC retention time of 586 s.
To `O=C(C1CCN(c2cnc(N3CCCC3)nc2)CC1)N1CCOCC1` belongs 587 s; to `CCCN1N=C(C(=O)N2CCCCCC2)S(=O)(=O)c2ccc(C)cc21`, 991 s.
The value for `CCCc1nc2ccc(CCC(=O)Nc3ccc(OC)c(OC)c3)cc2[nH]1` was 610 s.
To `NS(=O)(=O)c1ccc(CCNC(=O)c2coc(NC(=O)c3cccs3)n2)cc1` belongs 603 s; to `CSc1ccccc1C(=O)N(CCc1ccccc1)Cc1ccccn1`, 762 s.
As to `COc1ccc(N2CCN(c3nccc4ccc(C(=O)NC5CCCCC5)cc34)CC2)cc1`, the RP-LC retention time came out at 771 s.
`CCCn1ncc(N2CCC(C(=O)N(C)Cc3cn(C)nc3C)CC2)cc1=O`: the RP-LC retention time is 619 s.
The value for `O=C(NCCC1CCN(S(=O)(=O)c2ccccc2)CC1)Nc1ccc(F)cc1` was 883 s; that for `Cc1nc(-c2ccccc2)sc1C(=O)N1CCC(C(C)C(=O)N2CCOCC2)CC1` (centres undefined) was 728 s; that for `Cc1cc(Cl)ccc1N1C(=O)CN(S(C)(=O)=O)CC1(C)C(=O)NCc1ccccc1` (centres undefined) was 863 s.

These data come from the METLIN SMRT retention time set (Domingo-Almenara et al. 2019).
